Literature values as cited in patent publication US6242494A, “Substituted β-amino acid inhibitors of methionine aminopeptidase-2” (Abbott Laboratories, priority 1999, dated 2001).

Tests used:
[1] = test system: type 2 methionine aminopeptidase, MetAP2; details: result in words; cited from earlier work
[2] = test system: angiogenesis; details: cited from earlier work; for inhibition of angiogenesis: result in words
[3] = test system: MetAP2; details: result in words; cited from earlier work
[4] = test system: endothelial cell cycle; details: late G1 phase; result in words; cited from earlier work

SMILES | binding to MetAP2 [1] | potency as angiogenesis inhibitor relative to natural precursor fumagillin ([2]; more potent than fumagillin) | inhibition of angiogenesis [2] | mode of MetAP2 inhibition [3] | inhibition of neovascularization by arresting the endothelial cell cycle [4]
CO[C@@H]1[C@H](OC(=O)NC(=O)CCl)CC[C@]2(CO2)[C@H]1[C@@]1(C)O[C@@H]1CC=C(C)C [TNP-470, O-(chloroacetylcarbamoyl)fumagillol] | bind to a common bifunctional protein, type 2 methionine aminopeptidase, MetAP2 | 50 fold | potent inhibitors of angiogenesis | irreversible inhibitors | effective in inhibiting neovacularization by arresting the endothelial cell cycle in the late G1 phase
CO[C@@H]1[C@H](OC(=O)/C=C/C=C/C=C/C=C/C(=O)O)CC[C@]2(CO2)[C@H]1[C@@]1(C)O[C@@H]1CC=C(C)C [fumagillin] |  |  | potent inhibitors of angiogenesis | irreversible inhibitors | effective in inhibiting neovacularization by arresting the endothelial cell cycle in the late G1 phase
